pIC50: −log10 of the molar value. Where a name gives a salt, the structure may show the parent alone.
Molecular target: T1, human HPK1 (MAP4K1) (Homo sapiens, UniProt Q92918)
T1 construct: Recombinant human HPK1 kinase domain was obtained from ThermoFisher (Cat. #PV6357) and SignalChem (Cat. #M23-11G); purchased ThermoFisher; SignalChem PV6357; M23-11G
T1 sequence (Q92918 17-274 limits assumed): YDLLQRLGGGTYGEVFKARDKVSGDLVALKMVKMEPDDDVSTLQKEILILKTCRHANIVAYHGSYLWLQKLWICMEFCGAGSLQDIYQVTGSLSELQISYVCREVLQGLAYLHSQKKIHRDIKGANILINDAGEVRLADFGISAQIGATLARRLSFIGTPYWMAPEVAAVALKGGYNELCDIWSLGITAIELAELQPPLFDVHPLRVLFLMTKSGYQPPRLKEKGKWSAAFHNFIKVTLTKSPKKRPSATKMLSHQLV
Assay: Biochemical assay for activity against HPK1 (ADP-Glo, MBP substrate)
Details: recombinant human HPK1 kinase domain, 1 nM enzyme, ADP-Glo luminescence
How it was run: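 Recombinant human HPK1 kinase domain (1 nM solution) preincubated 15 min at room temperature with compounds in pH 7.5 HEPES buffer with NaCl, TCEP, MgCl2, Tween-20, BSA. MBP substrate with ATP added, reaction run 2 h at room temperature. ADP formation read by ADP-Glo luminescence to give IC50.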

**Q.** `COc1cc2c(cc1Nc1ncc3cnn(C4CCN(C(C)=O)CC4)c3n1)CN(C)CC2` [Example 106, 1-(4-(6-((6-methoxy-2-methyl-1,2,3,4-tetrahydroisoquinolin-7-yl)amino)-1H-pyrazolo[3,4-d]pyrimidin-1-yl)piperidin-1-yl)ethan-1-one trifluoroacetate] was tested. Which pIC50 did it give?
**A.** > 7.00

**Q.** `COc1cc2c(cc1Nc1ncc3cnn(C4CCN(C(=O)C(F)(F)F)CC4)c3n1)CN(C)CC2` [Example 107, 2,2,2-trifluoro-1-(4-(6-((6-methoxy-2-methyl-1,2,3,4-tetrahydroisoquinolin-7-yl)amino)-1H-pyrazolo[3,4-d]pyrimidin-1-yl)piperidin-1-yl)ethan-1-one trifluroacetate] was tested. Which pIC50 did it give?
**A.** 6.60 to 7.00

**Q.** `COc1cc2c(cc1Nc1ncc3cnn(C4CCCN(S(C)(=O)=O)C4)c3n1)CN(C)CC2` (centres unmarked) [Example 108, 6-methoxy-2-methyl-N-(1-(1-(methylsulfonyl)piperidin-3-yl)-1H-pyrazolo[3,4-d]pyrimidin-6-yl)-1,2,3,4-tetrahydroisoquinolin-7-amine] was tested. Which pIC50 did it give?
**A.** > 7.00

**Q.** With `COc1cc2c(cc1Nc1ncc3cnn(C4CCCN(C(C)=O)C4)c3n1)CN(C)CC2` (centres unmarked) [Example 109, 1-(3-(6-((6-methoxy-2-methyl-1,2,3,4-tetrahydroisoquinolin-7-yl)amino)-1H-pyrazolo[3,4-d]pyrimidin-1-yl)piperidin-1-yl)ethan-1-one] as the molecule, how does the pIC50 read?
**A.** > 7.00

**Q.** `COc1cc2c(cc1Nc1ncc3cnn(C[C@@H]4CCCN4C(C)=O)c3n1)CN(C)CC2` [Example 110, (S)-1-(2-((6-((6-methoxy-2-methyl-1,2,3,4-tetrahydroisoquinolin-7-yl)amino)-1H-pyrazolo[3,4-d]pyrimidin-1-yl)methyl)pyrrolidin-1-yl)ethan-1-one] was tested. Which pIC50 did it give?
**A.** > 7.00

**Q.** `COc1cc2c(cc1Nc1ncc3cnn(C[C@@H]4CCCN4S(C)(=O)=O)c3n1)CN(C)CC2` [Example 111, (S)-6-methoxy-2-methyl-N-(1-((1-(methylsulfonyl)228yrrolidine-2-yl)methyl)-1H-pyrazolo[3,4-d]pyrimidin-6-yl)-1,2,3,4-tetrahydroisoquinolin-7-amine] was tested. Which pIC50 did it give?
**A.** > 7.00

**Q.** With `CCC(=O)N1CCC[C@H]1Cn1ncc2cnc(Nc3cc4c(cc3OC)CCN(C)C4)nc21` [Example 112, (S)-1-(2-((6-((6-methoxy-2-methyl-1,2,3,4-tetrahydroisoquinolin-7-yl)amino)-1H-pyrazolo[3,4-d]pyrimidin-1-yl)methyl)pyrrolidin-1-yl)propan-1-one trifluoroacetate] as the molecule, how does the pIC50 read?
**A.** > 7.00

**Q.** How did the pIC50 turn out when `COC(=O)N1CCC[C@H]1Cn1ncc2cnc(Nc3cc4c(cc3OC)CCN(C)C4)nc21` [Example 113, methyl (S)-2-((6-((6-methoxy-2-methyl-1,2,3,4-tetrahydroisoquinolin-7-yl)amino)-1H-pyrazolo[3,4-d]pyrimidin-1-yl)methyl)pyrrolidine-1-carboxylate trifluoroacetate] was run?
**A.** > 7.00

**Q.** `COc1cc2c(cc1Nc1ncc3cnn(C[C@@H]4CCCN4C(=O)CO)c3n1)CN(C)CC2` [Example 114, (S)-2-hydroxy-1-(2-((6-((6-methoxy-2-methyl-1,2,3,4-tetrahydroisoquinolin-7-yl)amino)-1H-pyrazolo[3,4-d]pyrimidin-1-yl)methyl)230yrrolidine-1-yl)ethan-1-one 2,2,2-trifluoroacetate] was tested. Which pIC50 did it give?
**A.** > 7.00

**Q.** With `COc1cc2c(cc1Nc1ncc3c(C)nn(C[C@@H]4CCCN4C(C)=O)c3n1)CN(C)CC2` [Example 115, (S)-1-(2-((6-((6-methoxy-2-methyl-1,2,3,4-tetrahydroisoquinolin-7-yl)amino)-3-methyl-1H-pyrazolo[3,4-d]pyrimidin-1-yl)methyl)231yrrolidine-1-yl)ethan-1-one] as the molecule, how does the pIC50 read?
**A.** 6.60 to 7.00

**Q.** How did the pIC50 turn out when `COc1cc2c(cc1Nc1ncc3c(C)nn(C[C@@H]4CCCN4S(C)(=O)=O)c3n1)CN(C)CC2` [Example 116, (S)-6-methoxy-2-methyl-N-(3-methyl-1-((1-(methylsulfonyl)pyrrolidin-2-yl)methyl)-1H-pyrazolo[3,4-d]pyrimidin-6-yl)-1,2,3,4-tetrahydroisoquinolin-7-amine] was run?
**A.** 6.60 to 7.00

**Q.** `COc1cc2c(cc1Nc1ncc3cnn(C[C@H]4CCCN4C(C)=O)c3n1)CN(C)CC2` [Example 117, (R)-1-(2-((6-((6-methoxy-2-methyl-1,2,3,4-tetrahydroisoquinolin-7-yl)amino)-1H-pyrazolo[3,4-d]pyrimidin-1-yl)methyl)pyrrolidin-1-yl)ethan-1-one trifluoroacetate] was tested. Which pIC50 did it give?
**A.** > 7.00

**Q.** With `COc1cc2c(cc1Nc1ncc3cnn(C[C@H]4CCCN4S(C)(=O)=O)c3n1)CN(C)CC2` [Example 118, (R)-6-methoxy-2-methyl-N-(1-((1-(methylsulfonyl)pyrrolidin-2-yl)methyl)-1H-pyrazolo[3,4-d]pyrimidin-6-yl)-1,2,3,4-tetrahydroisoquinolin-7-amine trifluoroacetate] as the molecule, how does the pIC50 read?
**A.** > 7.00

**Q.** With `COc1cc2c(cc1Nc1ncc3cnn(C[C@H]4C[C@@H](NC(C)=O)C4)c3n1)CN(C)CC2` [Example 119, cis N-(3-((6-((6-methoxy-2-methyl-1,2,3,4-tetrahydroisoquinolin-7-yl)amino)-1H-pyrazolo[3,4-d]pyrimidin-1-yl)methyl)cyclobutyl)acetamide] as the molecule, how does the pIC50 read?
**A.** > 7.00

**Q.** With `COc1cc2c(cc1Nc1ncc3cnn(C[C@H]4C[C@@H](NS(C)(=O)=O)C4)c3n1)CN(C)CC2` [Example 120, cis N-(3-((6-((6-methoxy-2-methyl-1,2,3,4-tetrahydroisoquinolin-7-yl)amino)-1H-pyrazolo[3,4-d]pyrimidin-1-yl)methyl)cyclobutyl)methanesulfonamide trifluoroacetate] as the molecule, how does the pIC50 read?
**A.** > 7.00

**Q.** How did the pIC50 turn out when `COc1cc2c(cc1Nc1ncc3cnn([C@H]4C[C@H](CNS(C)(=O)=O)C4)c3n1)CN(C)CC2` [Example 121, N-((trans-3-(6-((6-methoxy-2-methyl-1,2,3,4-tetrahydroisoquinolin-7-yl)amino)-1H-pyrazolo[3,4-d]pyrimidin-1-yl)cyclobutyl)methyl)methanesulfonamide trifluoroacetate] was run?
**A.** > 7.00

**Q.** `COc1cc2c(cc1Nc1ncc3cnn([C@H]4C[C@H](CNC(C)=O)C4)c3n1)CN(C)CC2` [Example 122, N-((trans-3-(6-((6-methoxy-2-methyl-1,2,3,4-tetrahydroisoquinolin-7-yl)amino)-1H-pyrazolo[3,4-d]pyrimidin-1-yl)cyclobutyl)methyl)acetamide 2,2,2-trifluoroacetate] was tested. Which pIC50 did it give?
**A.** > 7.00

**Q.** With `COc1cc2c(cc1Nc1ncc3cnn([C@H]4C[C@H](CNS(=O)(=O)C5CC5)C4)c3n1)CN(C)CC2` [Example 123, N-[[3-[6-[(6-methoxy-2-methyl-3,4-dihydro-1H-isoquinolin-7-yl)amino]pyrazolo[3,4-d]pyrimidin-1-yl]cyclobutyl]methyl]cyclopropanesulfonamide] as the molecule, how does the pIC50 read?
**A.** > 7.00

**Q.** `COCCS(=O)(=O)NC[C@H]1C[C@H](n2ncc3cnc(Nc4cc5c(cc4OC)CCN(C)C5)nc32)C1` [Example 124, 2-methoxy-N-(((1r,3r)-3-(6-((6-methoxy-2-methyl-1,2,3,4-tetrahydroisoquinolin-7-yl)amino)-1H-pyrazolo[3,4-d]pyrimidin-1-yl)cyclobutyl)methyl)ethane-1-sulfonamide] was tested. Which pIC50 did it give?
**A.** > 7.00

**Q.** With `COc1cc2c(cc1Nc1ncc3cnn([C@H]4C[C@@H](CNS(C)(=O)=O)C4)c3n1)CN(C)CC2` [Example 125, N-((cis-3-(6-((6-methoxy-2-methyl-1,2,3,4-tetrahydroisoquinolin-7-yl)amino)-1H-pyrazolo[3,4-d]pyrimidin-1-yl)cyclobutyl)methyl)methanesulfonamide] as the molecule, how does the pIC50 read?
**A.** 6.60 to 7.00
